Data: ChEMBL document CHEMBL1201862, “PubChem BioAssay data set” (2004)
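96-well plates; 48 h exposure; 5 concentrations. Endpoints by linear interpolation between flanking doses. Not reached: highest tested concentration assigned. GI50: concentration for 50% inhibition of growth.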 Calls of active or inactive are those of the source. Cut-off read from the data, not from the text of the source: active = GI50 up to about 1.1 µM and inactive = higher.

What was measured:
Assay in all cases: growth of human tumour cells (NCI), 48 h
M14 = system: M14
MCF7 = system: MCF7
SK-MEL-28 = system: SK-MEL-28
NCI-H522 = system: NCI-H522
Malme-3M = system: Malme-3M
MDA-MB-435 = system: MDA-MB-435
SF-295 = system: SF-295
OVCAR-8 = system: OVCAR-8
HOP-92 = system: HOP-92
SN12C = system: SN12C
HT-29 = system: HT-29
MDA-N = system: MDA-N
HL-60 = system: HL-60
SNB-19 = system: SNB-19
SW-620 = system: SW-620
SF-268 = system: SF-268
786-0 = system: 786-0
HCT-116 = system: HCT-116
UACC-257 = system: UACC-257
HCC 2998 = system: HCC 2998

Structure (SMILES)	GI50 (M14)	GI50 (MCF7)	GI50 (SK-MEL-28)	GI50 (NCI-H522)	GI50 (Malme-3M)	GI50 (MDA-MB-435)	GI50 (SF-295)	GI50 (OVCAR-8)	GI50 (HOP-92)	GI50 (SN12C)	GI50 (HT-29)	GI50 (MDA-N)	GI50 (HL-60)	GI50 (SNB-19)	GI50 (SW-620)	GI50 (SF-268)	GI50 (786-0)	GI50 (HCT-116)	GI50 (UACC-257)	GI50 (HCC 2998)
COc1cc(CN(C)N2C(=O)c3cccc4cc([N+](=O)[O-])cc(c34)C2=O)cc(OC)c1OC	> 100 µM (inactive)	> 100 µM (inactive)	> 100 µM (inactive)	70.3 µM (inactive)	> 100 µM (inactive)	> 100 µM (inactive)	54.6 µM (inactive)	> 100 µM (inactive)	> 100 µM (inactive)	> 100 µM (inactive)	> 100 µM (inactive)	> 100 µM (inactive)	> 100 µM (inactive)	> 100 µM (inactive)						
Cc1c([N+](=O)[O-])ccc2c(NCCCN(C)C)ccnc12	16.3 µM (inactive)	15.9 µM (inactive)	25.5 µM (inactive)	17.3 µM (inactive)	17.2 µM (inactive)	17.5 µM (inactive)	22.2 µM (inactive)	25.2 µM (inactive)	16.5 µM (inactive)	29.1 µM (inactive)	14.2 µM (inactive)	15 µM (inactive)	> 100 µM (inactive)		17.8 µM (inactive)	37 µM (inactive)	26.8 µM (inactive)	15.2 µM (inactive)	17.2 µM (inactive)	
O=C(O)CCCCCCC[C@@H]1S[C@H]1CCCCCCO		> 100 µM (inactive)	> 100 µM (inactive)	> 100 µM (inactive)	> 100 µM (inactive)		> 100 µM (inactive)	> 100 µM (inactive)	33.8 µM (inactive)	> 100 µM (inactive)	> 100 µM (inactive)		> 100 µM (inactive)	> 100 µM (inactive)	> 100 µM (inactive)	> 100 µM (inactive)		> 100 µM (inactive)	> 100 µM (inactive)	> 100 µM (inactive)
CS(=O)(=O)c1ccc2nc(-c3ccc(O)cc3)sc2c1	21.6 µM (inactive)	17.5 µM (inactive)		13.9 µM (inactive)	16.7 µM (inactive)	18 µM (inactive)	16.7 µM (inactive)	20.5 µM (inactive)		17.5 µM (inactive)	13.2 µM (inactive)	17.7 µM (inactive)	21.2 µM (inactive)	17.4 µM (inactive)	20.7 µM (inactive)	15.5 µM (inactive)		16.8 µM (inactive)	19.6 µM (inactive)	
CCCCCCCCCCCCCCC(O)C1CCC(C(O)CCC(O)CCCCCC(O)CC2=CC(C)OC2=O)O1 (configuration not stated)	6.3 µM (inactive)		1.93 µM (inactive)	1.14 µM (inactive)	1.58 µM (inactive)		1.26 µM (inactive)	2.07 µM (inactive)	2.06 µM (inactive)	1.24 µM (inactive)	1.82 µM (inactive)		0.0117 µM (active)	1.81 µM (inactive)	2.52 µM (inactive)	0.832 µM (active)	2.43 µM (inactive)	1.36 µM (inactive)	0.18 µM (active)	2.51 µM (inactive)
CCCCCCCCSC(SCCCCCCCC)=C1C(=O)N(c2ccccc2)N=C1C	83 µM (inactive)		> 100 µM (inactive)	20.3 µM (inactive)	53.6 µM (inactive)		36.9 µM (inactive)	35.5 µM (inactive)	31.8 µM (inactive)	33.7 µM (inactive)	45.8 µM (inactive)		19.2 µM (inactive)	30.3 µM (inactive)	14.5 µM (inactive)	> 100 µM (inactive)	46.1 µM (inactive)	14.8 µM (inactive)	30.5 µM (inactive)	71.3 µM (inactive)
COc1ccc2c(c1)CCN1CCCc3ccccc3C21 (configuration not stated)	15.9 µM (inactive)	25.4 µM (inactive)	50.1 µM (inactive)	34.4 µM (inactive)		20.5 µM (inactive)	26.4 µM (inactive)	91 µM (inactive)	46.2 µM (inactive)	42.7 µM (inactive)	28.2 µM (inactive)			94.6 µM (inactive)	52 µM (inactive)	36 µM (inactive)	38.4 µM (inactive)	30.9 µM (inactive)	41.9 µM (inactive)	23 µM (inactive)
Cc1c2ccncc2c(C)c2c1[nH]c1ccc(O)c(OCC(F)(F)F)c12	9.55 µM (inactive)		10.8 µM (inactive)	4.5 µM (inactive)	11.9 µM (inactive)		5.21 µM (inactive)	3.03 µM (inactive)	5.47 µM (inactive)	8.2 µM (inactive)	> 7.5 µM (inactive)		2.9 µM (inactive)	2.11 µM (inactive)	3.55 µM (inactive)	8.67 µM (inactive)	2.01 µM (inactive)	2.39 µM (inactive)	10.6 µM (inactive)	9.42 µM (inactive)
COc1c2ccoc2c(S(=O)(=O)Nc2ccc(Cl)cc2)c2oc(C)cc(=O)c12		51.9 µM (inactive)	> 100 µM (inactive)	73.6 µM (inactive)	96.6 µM (inactive)		> 89.7 µM (inactive)	58.3 µM (inactive)	41.9 µM (inactive)	> 83.4 µM (inactive)	> 100 µM (inactive)		23.9 µM (inactive)	99.1 µM (inactive)	> 100 µM (inactive)	52.6 µM (inactive)		36 µM (inactive)	> 100 µM (inactive)	> 100 µM (inactive)
CCOC(=O)c1nc2ccc(C(F)(F)F)cc2nc1Oc1cc(OC)c(OC)c(OC)c1	> 100 µM (inactive)	> 100 µM (inactive)	> 100 µM (inactive)		35.3 µM (inactive)	> 100 µM (inactive)	97.3 µM (inactive)	38.3 µM (inactive)	14.5 µM (inactive)	> 100 µM (inactive)	78.2 µM (inactive)	> 100 µM (inactive)	> 100 µM (inactive)	27.8 µM (inactive)	47.8 µM (inactive)	35.6 µM (inactive)	13.5 µM (inactive)	50.9 µM (inactive)	40.4 µM (inactive)	
COC(=O)/C=C\C1C(C(=O)OC)C2(C(=O)OC)CCC1(C(=O)OC)N2 (configuration not stated)	14.9 µM (inactive)		13.6 µM (inactive)	0.681 µM (active)	5.98 µM (inactive)		23.4 µM (inactive)	7.19 µM (inactive)	4.81 µM (inactive)	16.3 µM (inactive)	21.2 µM (inactive)		2.51 µM (inactive)	15.8 µM (inactive)	3.13 µM (inactive)	23.8 µM (inactive)	15.3 µM (inactive)	13.8 µM (inactive)	6.5 µM (inactive)	17.3 µM (inactive)
CC(=O)OCC1OC(n2cnc3c(I)nc(I)nc32)C(OC(C)=O)C1OC(C)=O (configuration not stated)	17.2 µM (inactive)		14.9 µM (inactive)	1.91 µM (inactive)	18.7 µM (inactive)		20.5 µM (inactive)	10.3 µM (inactive)	3.18 µM (inactive)	13.5 µM (inactive)	6.4 µM (inactive)		2.47 µM (inactive)	12.5 µM (inactive)	13.8 µM (inactive)	13.4 µM (inactive)	14.3 µM (inactive)	4.91 µM (inactive)	14.1 µM (inactive)	5.21 µM (inactive)
Cn1c(=O)nc2n(-c3ccc(O)cc3)c3ccccc3nc-2c1=O	20.4 µM (inactive)		> 100 µM (inactive)	> 100 µM (inactive)	18.9 µM (inactive)		> 100 µM (inactive)	44.5 µM (inactive)	26.4 µM (inactive)	> 100 µM (inactive)	> 100 µM (inactive)		> 100 µM (inactive)	> 100 µM (inactive)	76.4 µM (inactive)	23.2 µM (inactive)	17.3 µM (inactive)	> 100 µM (inactive)	> 100 µM (inactive)	29.9 µM (inactive)
C=C(C(=O)O)C1CCC(CC/C=C(\C)CC/C=C(\C)CCC=C(C)C)CO1 (configuration not stated)	11.1 µM (inactive)	5.97 µM (inactive)	14.3 µM (inactive)	20.7 µM (inactive)	21.5 µM (inactive)	18 µM (inactive)	18.2 µM (inactive)	18.8 µM (inactive)		14.2 µM (inactive)	11.7 µM (inactive)	11 µM (inactive)	4.01 µM (inactive)	13.6 µM (inactive)	15.7 µM (inactive)	28.2 µM (inactive)	11 µM (inactive)	4.99 µM (inactive)	15.3 µM (inactive)	
CNC(=S)/C(C#N)=C(\N)N1CCCC1			> 100 µM (inactive)	> 100 µM (inactive)	> 100 µM (inactive)	> 100 µM (inactive)		> 100 µM (inactive)		> 100 µM (inactive)	> 100 µM (inactive)	> 100 µM (inactive)	> 100 µM (inactive)	> 100 µM (inactive)	> 100 µM (inactive)	> 100 µM (inactive)	> 100 µM (inactive)	> 100 µM (inactive)		> 100 µM (inactive)
COc1ccc(-c2cc(-c3ccco3)c(C#N)c(=O)[nH]2)cc1	> 100 µM (inactive)		> 100 µM (inactive)	20.3 µM (inactive)	29.8 µM (inactive)		65 µM (inactive)	36.8 µM (inactive)	> 100 µM (inactive)	32.1 µM (inactive)	> 100 µM (inactive)		> 100 µM (inactive)	> 100 µM (inactive)	> 100 µM (inactive)	36.7 µM (inactive)	91 µM (inactive)	40.3 µM (inactive)	77.4 µM (inactive)	> 100 µM (inactive)
